≈ marks a conversion by molar mass, not a printed value. Read-outs that look alike come from different tables or passages of the source.
Columns and labels:
E. faecalis SR7914 = assay: In vitro measurement of antibacterial activity (MIC, liquid dilution method); assay type: cell-based; details: E. faecalis SR7914, vancomycin-resistant Enterococcus (VRE VanA); cation-adjusted Muller Hinton liquid medium; read-out: MIC (minimum growth inhibition concentration)
Method: (§1) Some of the present compounds were measured for a minimum growth inhibition concentration (MIC) by a small amount of liquid dilution method using a cation-adjusted Muller Hinton liquid medium well-known to a person skilled in the art.

E. faecium SR7940 = assay: as above; assay type: cell-based; details: Enterococcus faecium
Method: as §1

[1] = E. faecium SR7940, cation-adjusted Muller Hinton liquid medium, read-out: MIC (minimum growth inhibition concentration)

SMILES	MIC (E. faecalis SR7914) [µg/mL]	MIC (E. faecium SR7940; [1]) [µg/mL]	MIC (E. faecium SR7940; SR7940, read-out: MIC (minimum growth inhibition concentration)) [µg/mL]
CN[C@H](CC(C)C)C(=O)NC1C(=O)NC(CC(N)=O)C(=O)N[C@H]2C(=O)NC3C(=O)N[C@H](C(=O)N[C@H](C(=O)O)c4cc(O)cc(O)c4-c4cc3ccc4O)[C@H](OC3C[C@](C)(N)[C@@H](O)[C@H](C)O3)c3ccc(c(Cl)c3)Oc3cc2cc(c3O[C@@H]2O[C@H](CO)[C@@H](O[C@@H]3O[C@H](CNCc4ccc(-c5ccc(Cl)cc5)nc4)[C@H](O)[C@H](O)[C@H]3O)[C@H](O)[C@H]2O)Oc2ccc(cc2Cl)[C@H]1O (stereo partly drawn) [Example 45]	2 to 4 (≈ 1.1 to 2.21 µM)	1 to 4 (≈ 0.552 to 2.21 µM)	–
CN[C@H](CC(C)C)C(=O)N[C@H]1C(=O)N[C@@H](CC(N)=O)C(=O)N[C@H]2C(=O)N[C@H]3C(=O)N[C@H](C(=O)N[C@@H](C(=O)O)c4cc(O)cc(O)c4-c4cc3ccc4O)[C@H](O[C@H]3C[C@](C)(N)[C@@H](O)[C@H](C)O3)c3ccc(c(Cl)c3)Oc3cc2cc(c3O[C@@H]2O[C@H](CO)[C@@H](O[C@@H]3O[C@H](CNCc4ccc(-c5cc(F)cc(F)c5)s4)[C@H](O)[C@H](O)[C@H]3O)[C@H](O)[C@H]2O)Oc2ccc(cc2Cl)[C@H]1O [Example 82]	2 to 4 (≈ 1.1 to 2.2 µM)	1 to 4 (≈ 0.55 to 2.2 µM)	–
CN[C@H](CC(C)C)C(=O)NC1C(=O)NC(CC(N)=O)C(=O)N[C@H]2C(=O)NC3C(=O)N[C@H](C(=O)NC(C(=O)O)c4cc(O)cc(O)c4-c4cc3ccc4O)[C@H](O[C@H]3C[C@](C)(N)[C@@H](O)[C@H](C)O3)c3ccc(c(Cl)c3)Oc3cc2cc(c3O[C@@H]2O[C@H](CO)[C@@H](O[C@@H]3O[C@H](CNCc4ccc(-c5ccc(F)c(F)c5)nc4)[C@H](O)[C@H](O)[C@H]3O)[C@H](O)[C@H]2O)Oc2ccc(cc2Cl)[C@H]1O (stereo partly drawn) [Example 88]	2 to 4 (≈ 1.1 to 2.21 µM)	1 to 4 (≈ 0.551 to 2.21 µM)	–
CN[C@H](CC(C)C)C(=O)N[C@H]1C(=O)N[C@@H](CC(N)=O)C(=O)N[C@H]2C(=O)N[C@H]3C(=O)N[C@H](C(=O)N[C@@H](C(=O)O)c4cc(O)cc(O)c4-c4cc3ccc4O)[C@H](O[C@H]3C[C@](C)(N)[C@@H](O)[C@H](C)O3)c3ccc(c(Cl)c3)Oc3cc2cc(c3O[C@@H]2O[C@H](CO)[C@@H](O[C@@H]3O[C@H](CNCc4ccc(-c5ccc(OC)cc5)s4)[C@H](O)[C@H](O)[C@H]3O)[C@H](O)[C@H]2O)Oc2ccc(cc2Cl)[C@H]1O [Example 83]	2 to 4 (≈ 1.1 to 2.21 µM)	1 to 4 (≈ 0.552 to 2.21 µM)	–
CN[C@H](CC(C)C)C(=O)N[C@H]1C(=O)N[C@@H](CC(N)=O)C(=O)N[C@H]2C(=O)N[C@H]3C(=O)N[C@H](C(=O)N[C@@H](C(=O)O)c4cc(O)cc(O)c4-c4cc3ccc4O)[C@H](OC3C[C@](C)(N)[C@@H](O)[C@H](C)O3)c3ccc(c(Cl)c3)Oc3cc2cc(c3O[C@@H]2O[C@H](CO)[C@@H](O[C@@H]3O[C@H](CNCc4ccc(C(=O)NCc5ccc(Cl)c(Cl)c5)cc4)[C@H](O)[C@H](O)[C@H]3O)[C@H](O)[C@H]2O)Oc2ccc(cc2Cl)[C@H]1O (stereo partly drawn) [Example 69]	2 to 4 (≈ 1.05 to 2.1 µM)	1 to 4 (≈ 0.526 to 2.1 µM)	–
CN[C@H](CC(C)C)C(=O)NC1C(=O)N[C@@H](CC(N)=O)C(=O)N[C@H]2C(=O)N[C@H]3C(=O)N[C@H](C(=O)N[C@@H](C(=O)O)c4cc(O)cc(O)c4-c4cc3ccc4O)[C@H](O[C@H]3C[C@](C)(NCc4c[nH]cn4)[C@@H](O)[C@H](C)O3)c3ccc(c(Cl)c3)Oc3cc2cc(c3O[C@@H]2O[C@H](CO)[C@@H](O[C@@H]3O[C@H](CNCc4cccc(NC(=O)c5cccc(OC(F)(F)F)c5)c4)[C@H](O)[C@H](O)[C@H]3O)[C@H](O)[C@H]2O)Oc2ccc(cc2Cl)[C@H]1O (stereo partly drawn) [Example 30]	2 to 4 (≈ 1.01 to 2.02 µM)	1 to 4 (≈ 0.504 to 2.02 µM)	–
CN[C@H](CC(C)C)C(=O)NC1C(=O)N[C@@H](CC(N)=O)C(=O)N[C@H]2C(=O)N[C@H]3C(=O)N[C@H](C(=O)N[C@@H](C(=O)O)c4cc(O)cc(O)c4-c4cc3ccc4O)[C@H](O[C@H]3C[C@](C)(NCc4cccnc4)[C@@H](O)[C@H](C)O3)c3ccc(c(Cl)c3)Oc3cc2cc(c3O[C@@H]2O[C@H](CO)[C@@H](O[C@@H]3O[C@H](CNCc4cccc(NC(=O)c5cccc(OC(F)(F)F)c5)c4)[C@H](O)[C@H](O)[C@H]3O)[C@H](O)[C@H]2O)Oc2ccc(cc2Cl)[C@H]1O (stereo partly drawn) [Example 31]	2 to 4 (≈ 1 to 2.01 µM)	1 to 4 (≈ 0.501 to 2.01 µM)	–
CN[C@H](CC(C)C)C(=O)N[C@H]1C(=O)N[C@@H](CC(N)=O)C(=O)N[C@H]2C(=O)N[C@H]3C(=O)N[C@H](C(=O)N[C@@H](C(=O)O)c4cc(O)cc(O)c4-c4cc3ccc4O)[C@H](OC3C[C@](C)(N)[C@@H](O)[C@H](C)O3)c3ccc(c(Cl)c3)Oc3cc2cc(c3O[C@@H]2O[C@H](CO)[C@@H](O[C@@H]3O[C@H](CNCc4ccc(-c5cccs5)s4)[C@H](O)[C@H](O)[C@H]3O)[C@H](O)[C@H]2O)Oc2ccc(cc2Cl)[C@H]1O (stereo partly drawn) [Example 75]	2 to 4 (≈ 1.12 to 2.24 µM)	1 to 4 (≈ 0.559 to 2.24 µM)	–
CN[C@H](CC(C)C)C(=O)NC1C(=O)NC(CC(N)=O)C(=O)N[C@H]2C(=O)NC3C(=O)N[C@H](C(=O)N[C@H](C(=O)O)c4cc(O)cc(O)c4-c4cc3ccc4O)[C@H](OC3C[C@](C)(N)[C@@H](O)[C@H](C)O3)c3ccc(c(Cl)c3)Oc3cc2cc(c3O[C@@H]2O[C@H](CO)[C@@H](O[C@@H]3O[C@H](CNCc4ccc(-c5cccc(F)c5)s4)[C@H](O)[C@H](O)[C@H]3O)[C@H](O)[C@H]2O)Oc2ccc(cc2Cl)[C@H]1O (stereo partly drawn) [Example 43]	2 to 4 (≈ 1.11 to 2.22 µM)	1 to 4 (≈ 0.555 to 2.22 µM)	–
CN[C@H](CC(C)C)C(=O)NC1C(=O)N[C@@H](CC(N)=O)C(=O)N[C@H]2C(=O)N[C@H]3C(=O)N[C@H](C(=O)N[C@@H](C(=O)O)c4cc(O)cc(O)c4-c4cc3ccc4O)[C@H](OC3C[C@](C)(N)[C@@H](O)[C@H](C)O3)c3ccc(c(Cl)c3)Oc3cc2cc(c3O[C@@H]2O[C@H](CO)[C@@H](O[C@@H]3O[C@H](CNCc4ccc(Oc5ccc(F)cc5)cc4)[C@H](O)[C@H](O)[C@H]3O)[C@H](O)[C@H]2O)Oc2ccc(cc2Cl)[C@H]1O (stereo partly drawn) [Example 50]	2 to 4 (≈ 1.1 to 2.21 µM)	1 to 4 (≈ 0.552 to 2.21 µM)	–
CN[C@H](CC(C)C)C(=O)N[C@H]1C(=O)N[C@@H](CC(N)=O)C(=O)N[C@H]2C(=O)N[C@H]3C(=O)N[C@H](C(=O)N[C@@H](C(=O)O)c4cc(O)cc(O)c4-c4cc3ccc4O)[C@H](OC3C[C@](C)(N)[C@@H](O)[C@H](C)O3)c3ccc(c(Cl)c3)Oc3cc2cc(c3O[C@@H]2O[C@H](CO)[C@@H](O[C@@H]3O[C@H](CNCc4ccc(-n5cccc5)cc4)[C@H](O)[C@H](O)[C@H]3O)[C@H](O)[C@H]2O)Oc2ccc(cc2Cl)[C@H]1O (stereo partly drawn) [Example 65]	2 to 4 (≈ 1.13 to 2.27 µM)	1 to 4 (≈ 0.566 to 2.27 µM)	–
CN[C@H](CC(C)C)C(=O)NC1C(=O)N[C@@H](CC(N)=O)C(=O)N[C@H]2C(=O)N[C@H]3C(=O)N[C@H](C(=O)N[C@@H](C(=O)O)c4cc(O)cc(O)c4-c4cc3ccc4O)[C@H](O[C@H]3C[C@](C)(N)[C@@H](O)[C@H](C)O3)c3ccc(c(Cl)c3)Oc3cc2cc(c3O[C@@H]2O[C@H](CO)[C@@H](O[C@@H]3O[C@H](CNCc4ccc(-c5ccc(Cl)cc5)s4)[C@H](O)[C@H](O)[C@H]3O)[C@H](O)[C@H]2O)Oc2ccc(cc2Cl)[C@H]1O (stereo partly drawn) [Example 13]	2 to 4 (≈ 1.1 to 2.2 µM)	1 to 4 (≈ 0.55 to 2.2 µM)	–
CN[C@H](CC(C)C)C(=O)NC1C(=O)NC(CC(N)=O)C(=O)N[C@H]2C(=O)NC3C(=O)N[C@H](C(=O)N[C@H](C(=O)O)c4cc(O)cc(O)c4-c4cc3ccc4O)[C@H](O[C@H]3C[C@](C)(N)[C@@H](O)[C@H](C)O3)c3ccc(c(Cl)c3)Oc3cc2cc(c3O[C@@H]2O[C@H](CO)[C@@H](O[C@@H]3O[C@H](CNCCn4ccc(NC(=O)c5ccc(OC(F)(F)F)cc5)nc4=O)[C@H](O)[C@H](O)[C@H]3O)[C@H](O)[C@H]2O)Oc2ccc(cc2Cl)[C@H]1O (stereo partly drawn) [Example 11]	2 to 4 (≈ 1.03 to 2.07 µM)	1 to 4 (≈ 0.517 to 2.07 µM)	–
CN[C@H](CC(C)C)C(=O)N[C@H]1C(=O)N[C@@H](CC(N)=O)C(=O)N[C@H]2C(=O)N[C@H]3C(=O)NC(C(=O)N[C@@H](C(=O)O)c4cc(O)cc(O)c4-c4cc3ccc4O)[C@H](O)c3ccc(c(Cl)c3)Oc3cc2cc(c3OC2O[C@H](CO)[C@@H](O)[C@H](O)[C@H]2OC2C[C@](C)(N)[C@H](O)[C@H](C)O2)Oc2ccc(cc2Cl)[C@H]1O (stereo partly drawn) [vancomycin, reference compound]	–	–	> 64

Source: patent US8481696B2, “Glycosylated glycopeptide antibiotic derivatives” (Shionogi & Co., Ltd., priority 2007, dated 2013)
